In ChEMBL document CHEMBL3769339, “Synthesis of indole-derived allocolchicine congeners exhibiting pronounced anti-proliferative and apoptosis-inducing properties” (Medchemcomm, 2015):
Activity calls are given as the source filed them. No cut-off for these calls is given here.

What was measured:
BJAB [1] = assay: Induction of apoptosis in human BJAB cells assessed as DNA fragmentation after 72 hrs by flow cytometry; format: functional, cell-based
BJAB [2] = assay: Antiproliferative activity against human BJAB cells after 24 hrs by CASY cell counting method; format: functional, cell-based
BJAB [3] = assay: Antiproliferative activity against human BJAB cells at AC50 after 24 hrs by CASY cell counting method; format: functional
BJAB [4] = assay: Cytotoxicity against human BJAB cells assessed as necrosis at AC50 after 72 hrs by LDH release assay; format: cell-based
BJAB [5] = assay: Antiproliferative activity against human BJAB cells assessed as cell count at 0.1 uM after 24 hrs by CASY cell counting method (reference value: 2.02 10^5/ml); format: functional
BJAB [6] = assay: Antiproliferative activity against human BJAB cells assessed as cell count at 0.005 uM after 24 hrs by CASY cell counting method (reference value: 2.02 10^5/ml); format: functional
BJAB [7] = assay: Cytotoxicity against human BJAB cells assessed as necrosis at 5 uM after 1 hr by LDH release assay; format: cell-based
BJAB [8] = assay: Antiproliferative activity against human BJAB cells assessed as cell count at 10 uM after 24 hrs by CASY cell counting method (reference value: 2.02 10^5/ml); format: functional
BJAB [9] = assay: Antiproliferative activity against human BJAB cells assessed as cell count at 0.5 uM after 24 hrs by CASY cell counting method (reference value: 2.02 10^5/ml); format: functional
BJAB [10] = assay: Antiproliferative activity against human BJAB cells assessed as cell count at 5 uM after 24 hrs by CASY cell counting method (reference value: 2.02 10^5/ml); format: functional
BJAB [11] = assay: Antiproliferative activity against human BJAB cells assessed as cell count at 30 uM after 24 hrs by CASY cell counting method (reference value: 2.02 10^5/ml); format: functional
BJAB [12] = assay: Antiproliferative activity against human BJAB cells assessed as cell count at 1 uM after 24 hrs by CASY cell counting method (reference value: 2.02 10^5/ml); format: functional
Ovis aries = species: Ovis aries; assay: Inhibition of sheep tubulin polymerization at 0.75 to 7.5 uM by fluorescence based assay
BJAB [13] = assay: Antiproliferative activity against human BJAB cells assessed as cell count at 100 uM after 24 hrs by CASY cell counting method (reference value: 2.02 10^5/ml); format: functional
[14] = Inhibition of sheep tubulin polymerization by fluorescence based assay; set-up: species or system Ovis aries
BJAB [15] = assay: Antiproliferative activity against human BJAB cells assessed as cell count at 0.05 uM after 24 hrs by CASY cell counting method (reference value: 2.02 10^5/ml); format: functional
BJAB [16] = assay: Antiproliferative activity against human BJAB cells assessed as cell count at 0.001 uM after 24 hrs by CASY cell counting method (reference value: 2.02 10^5/ml); format: functional
BJAB [17] = assay: Antiproliferative activity against human BJAB cells assessed as cell count at 0.01 uM after 24 hrs by CASY cell counting method (reference value: 2.02 10^5/ml); format: functional
BJAB [18] = assay: Antiproliferative activity against human BJAB cells assessed as cell count at 50 uM after 24 hrs by CASY cell counting method (reference value: 2.02 10^5/ml); format: functional

Structure (SMILES) | AC50 (BJAB [1]) | Activity (BJAB [1]) | Activity (BJAB [2]) | IC50 (BJAB [2]) | inhibition (INH) (BJAB [3]) | Activity (BJAB [4]) | IC50 [14] | also measured
COc1cc2c(c(OC)c1OC)-c1cc3c(ccn3C)cc1C(=O)CC2 | 50 nM | Dose-dependent effect | Dose-dependent effect | 10 nM | 98% | 4% |  | 
COc1cc2c(c(OC)c1OC)-c1cc3c(ccn3C)cc1C(O)CC2 (racemic) | 1 nM | Dose-dependent effect | Dose-dependent effect | 1 nM | 52% | 7% |  | 
COc1cc2c(c(OC)c1OC)-c1cc3c(ccn3C)cc1C(NC(C)=O)CC2 (racemic) | > 100000 nM | Dose-dependent effect | Dose-dependent effect | > 100000 nM |  |  |  | 
COc1cc2c(c(OC)c1OC)-c1cc3c(ccn3C)cc1C(N)CC2 (racemic) | 5000 nM | Dose-dependent effect | Dose-dependent effect | 500 nM | 90% | 29% |  | 
COc1cc2c(c(OC)c1OC)-c1cc3c(ccn3C)cc1C(OC(C)=O)CC2 (racemic) | 50 nM | Dose-dependent effect | Dose-dependent effect | 10 nM | 89% | 0% | 125 nM | Activity (BJAB [5]): 1.17 ×10⁵ /ml; Activity (BJAB [6]): 1.87 ×10⁵ /ml; Activity (BJAB [7]): Non-toxic; Activity (BJAB [8]): 1.13 ×10⁵ /ml; Activity (BJAB [9]): 1.21 ×10⁵ /ml; Activity (BJAB [10]): 1.1 ×10⁵ /ml; Activity (BJAB [11]): 1.12 ×10⁵ /ml; Activity (BJAB [12]): 1.09 ×10⁵ /ml; inhibition (Ovis aries): Active; Activity (BJAB [13]): 0.97 ×10⁵ /ml; Activity (BJAB [15]): 1.11 ×10⁵ /ml; Activity (BJAB [16]): 2 ×10⁵ /ml; Activity (BJAB [17]): 1.9 ×10⁵ /ml; Activity (BJAB [18]): 1.02 ×10⁵ /ml
COc1cc2c(c(OC)c1OC)-c1cc3c(ccn3C)cc1C(N=[N+]=[N-])CC2 (racemic) | > 100000 nM | Dose-dependent effect | Dose-dependent effect | 50000 nM | 30% | 1% |  | 
COc1cc2c(c(OC)c1OC)-c1cc3ccn(C)c3cc1C(O)CC2 (racemic) |  |  |  |  |  |  | 264 nM | 
COc1cc2c(c(OC)c1OC)-c1ccc3c(ccn3C)c1C(O)CC2 (racemic) |  |  |  |  |  |  | 228 nM | 
COc1cc2c(c(OC)c1OC)-c1ccc(OC)c(=O)cc1[C@@H](NC(C)=O)CC2 [COLCHICINE] | 30 nM | Dose-dependent effect | Dose-dependent effect | 20 nM |  |  | 375 nM | 
COc1ccc(/C=C\c2cc(OC)c(OC)c(OC)c2)cc1O [COMBRETASTATIN A4] |  |  |  |  |  |  | 90 nM | 
